Test results: PubChem BioAssay (NCI)
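Test compounds were applied to cells in 96-well plates for 48 hours at 5 doses. TGI is the concentration that stops growth completely.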

Experiments:
Experiment in all cases: NCI tumour cell line growth inhibition, 48 h
DLD-1 colon = tested on: DLD-1 colon
DMS 114 small cell lung = tested on: DMS 114 small cell lung
DMS 273 small cell lung = tested on: DMS 273 small cell lung
KM20L2 colon = tested on: KM20L2 colon
M19-MEL melanoma = tested on: M19-MEL melanoma
XF 498 CNS = tested on: XF 498 CNS
HOP-18 NSCLC = tested on: HOP-18 NSCLC
P388 leukemia = tested on: P388 leukemia
P388/ADR leukemia = tested on: P388/ADR leukemia
SN12K1 renal = tested on: SN12K1 renal
RXF-631 renal = tested on: RXF-631 renal

Row | Compound | TGI (DLD-1 colon) [µM] | TGI (DMS 114 small cell lung) [µM] | TGI (DMS 273 small cell lung) [µM] | TGI (KM20L2 colon) [µM] | TGI (M19-MEL melanoma) [µM] | TGI (XF 498 CNS) [µM] | TGI (HOP-18 NSCLC) [µM] | TGI (P388 leukemia) [µM] | TGI (P388/ADR leukemia) [µM] | TGI (SN12K1 renal) [µM] | TGI (RXF-631 renal) [µM]
1 | COc1cc2ccc1-c1cc(ccc1O)CC1c3cc4c(cc3CCN1C)Oc1c(OC)cc3c(c1O4)C(C2)N(C)CC3 (configuration not stated) | 5.27 | 3.48 | 3.27 | 2.97 | 3.36 | 3.44 | – | – | – | – | –
2 | Cc1c2ccnc(-c3ccccc3)c2cc2c1[nH]c1ccccc12 | 16.1 | 4.82 | 4.06 | 6.8 | 8.48 | – | 8.67 | 5.46 | 6.08 | 5.04 | –
3 | COc1cc2c(cc1OC)C(Cl)C(c1ccc(Cl)cc1)=C2Cl (configuration not stated) | 37.8 | 28.6 | 41.6 | 39.5 | 41.3 | 9.09 | 31.7 | – | – | – | 51.7
4 | Cc1cc(=O)[nH]c(NN2C(Cl)C(=O)C2c2cccc([N+](=O)[O-])c2)n1 (configuration not stated) | – | 55.4 | 31.2 | > 100 | 49.1 | – | 78 | – | – | – | –
5 | CC(C)(C)C1CCC2(CC1)CCN(CCCN1CCOCC1)CC2 | > 100 | 33.9 | 38.3 | 5.24 | 25.9 | – | – | – | – | – | 31
6 | CN(C)CCNC(=O)c1cccc2nc3c4ccccc4c4ccccc4c3nc12 | 2.9 | – | > 100 | 10.3 | 3.4 | 9.06 | 20.1 | – | – | – | –
7 | CN(C)c1ccc(C2CC(=O)C(C#N)=C(c3ccccc3)NN2C)cc1 (configuration not stated) | > 100 | > 100 | – | – | – | 38.3 | > 100 | – | – | – | > 100
8 | CN(C)[C@@H]1C(=O)C(C(=O)NCNCCCC(=O)O)=C(O)[C@@]2(O)C(=O)C3=C(O)c4c(O)cccc4[C@@](C)(O)[C@H]3C[C@@H]12 | > 100 | > 100 | > 100 | > 100 | > 100 | > 100 | > 100 | – | – | – | –
